The subject of this experiment is 327498-153-R-J2-PDC complex spheroid growth, % test/control. Briefly: Anticancer human tumor 327498-153-R-J2-PDC patient-derived uterine carcinosarcoma cell line growth inhibition [Asc]. The following applies: for viability, T/C: stronger effect = lower value. The procedure, abridged:
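Concentration series start at each agent's clinical Cmax, or at 10 microM when none is established, and drop in half-log steps; agents are applied alone or together to complex spheroids built with HUVEC and hMSC.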

Setting [1] is: curve of first compound, second compound 0.01 µM.
Setting [2] is: curve of first compound, second compound 0.0316 µM.
The mark [3] stands for this setting: curve of first compound, second compound 0.1 µM.
[4] abbreviates: curve of first compound, second compound 0.316 µM.
[5] abbreviates: curve of first compound, second compound 1 µM.
Where [6] appears, read: second compound 0.01 µM, first compound 0.0316 µM.
[7] abbreviates: second compound 0.01 µM, first compound 0.1 µM.
[8] abbreviates: second compound 0.01 µM, first compound 0.316 µM.
The mark [9] stands for this setting: second compound 0.01 µM, first compound 1 µM.
Setting [10] is: second compound 0.0316 µM, first compound 0.0316 µM.
Where [11] appears, read: second compound 0.0316 µM, first compound 0.1 µM.
The mark [12] stands for this setting: second compound 0.0316 µM, first compound 0.316 µM.
The mark [13] stands for this setting: second compound 0.0316 µM, first compound 1 µM.
Where [14] appears, read: second compound 0.1 µM, first compound 0.0316 µM.
Where [15] appears, read: second compound 0.1 µM, first compound 0.1 µM.
Where [16] appears, read: second compound 0.1 µM, first compound 0.316 µM.
The mark [17] stands for this setting: second compound 0.1 µM, first compound 1 µM.
Where [18] appears, read: second compound 0.316 µM, first compound 0.0316 µM.
[19] abbreviates: second compound 0.316 µM, first compound 0.1 µM.
[20] abbreviates: second compound 0.316 µM, first compound 0.316 µM.
Where [21] appears, read: second compound 0.316 µM, first compound 1 µM.
The mark [22] stands for this setting: second compound 1 µM, first compound 0.0316 µM.
[23] abbreviates: second compound 1 µM, first compound 0.1 µM.
The mark [24] stands for this setting: second compound 1 µM, first compound 0.316 µM.
[25] abbreviates: second compound 1 µM, first compound 1 µM.

pIC50: −log10 of the molar value. Several values for one entry are separate records, joined by “and”; a condition that tells them apart may be missing. Identical values can stand only once.
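Also: spheroids exposed to compound for 7 days after 3 days of growth.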
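For viability, T/C in this document: 100% = DMSO vehicle control wells.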

In the case of `Cn1ncnc1[C@H]1c2n[nH]c(=O)c3cc(F)cc(c23)N[C@@H]1c1ccc(F)cc1` + CCN1C(C(=O)NC23CCC(C(=O)O)(CC2)CC3)C(c2cccc(Cl)c2F)C2(C(=O)Nc3cc(Cl)ccc32)C12CCCCC2, the pIC50 is, setting by setting: (curve of first compound, second compound 0.03 µM) 8.22; (curve of first compound, second compound 0.0949 µM) 8.58; (curve of first compound, second compound 0.3 µM) above 9.50; (curve of first compound, second compound 0.949 µM) above 9.50; (curve of first compound, second compound 3 µM) above 9.50. In addition, the viability, T/C (second compound 0.03 µM, first compound 0.000316 µM) was 99.9%; the viability, T/C (second compound 0.03 µM, first compound 0.001 µM) was 90%; the viability, T/C (second compound 0.03 µM, first compound 0.00316 µM) was 70.8%; the viability, T/C (second compound 0.03 µM, first compound 0.01 µM) was 34.8%; the viability, T/C (second compound 0.03 µM, first compound 0.0316 µM) was 12.6%; the viability, T/C (second compound 0.03 µM, first compound 0.1 µM) was 6.28%. Further, the viability, T/C by setting is: (second compound 0.0949 µM, first compound 0.000316 µM) 75.8%; (second compound 0.0949 µM, first compound 0.001 µM) 73.4%; (second compound 0.0949 µM, first compound 0.00316 µM) 45%; (second compound 0.0949 µM, first compound 0.01 µM) 17.4%; (second compound 0.0949 µM, first compound 0.0316 µM) 7.19%; (second compound 0.0949 µM, first compound 0.1 µM) 4.65%. For the same compound, the viability, T/C by setting is: (second compound 0.3 µM, first compound 0.000316 µM) 45.2%; (second compound 0.3 µM, first compound 0.001 µM) 28.2%; (second compound 0.3 µM, first compound 0.00316 µM) 16%; (second compound 0.3 µM, first compound 0.01 µM) 6.36%; (second compound 0.3 µM, first compound 0.0316 µM) 3.88%; (second compound 0.3 µM, first compound 0.1 µM) 3.44%. In addition, the viability, T/C runs as follows: (second compound 0.949 µM, first compound 0.000316 µM) 5.73%; (second compound 0.949 µM, first compound 0.001 µM) 7.29%; (second compound 0.949 µM, first compound 0.00316 µM) 3.58%; (second compound 0.949 µM, first compound 0.01 µM) 1.98%; (second compound 0.949 µM, first compound 0.0316 µM) 2.28%; (second compound 0.949 µM, first compound 0.1 µM) 1.93%. Also, the viability, T/C runs as follows: (second compound 3 µM, first compound 0.000316 µM) 3.13%; (second compound 3 µM, first compound 0.001 µM) 8.85%; (second compound 3 µM, first compound 0.00316 µM) 2.79%; (second compound 3 µM, first compound 0.01 µM) 2.59%; (second compound 3 µM, first compound 0.0316 µM) 1.49%; (second compound 3 µM, first compound 0.1 µM) 2.35%.
`C=C(F)C(=O)N1CCN(c2nc(OCC3CCCN3C)nc3c2CCN(c2cccc4cccc(Cl)c24)C3)CC1CC#N` (centres undefined) + CNC(C)C(=O)NC1CN(S(=O)(=O)c2cccc(S(=O)(=O)N3CCC4CCC(C(=O)NC(c5ccccc5)c5ccccc5)N4C(=O)C(NC(=O)C(C)NC)C3)c2)CCC2CCC(C(=O)NC(c3ccccc3)c3ccccc3)N2C1=O: the pIC50 was 5.88 under setting [1]; 5.93 under setting [2]; 5.87 under setting [3]; 5.92 under setting [4]; 6.01 under setting [5]. Moreover, the viability, T/C reads like this: under setting [6], 74.3%; under setting [7], 71%; under setting [8], 58.4%; under setting [9], 61.6%; (second compound 0.01 µM, first compound 3.16 µM) 14.5%; (second compound 0.01 µM, first compound 10 µM) 0.14%. The viability, T/C is 73.2% under setting [10]; 71.6% under setting [11]; 64.5% under setting [12]; 56.8% under setting [13]; 16.2% (second compound 0.0316 µM, first compound 3.16 µM); 0.14% (second compound 0.0316 µM, first compound 10 µM). The viability, T/C reads like this: under setting [14], 76%; under setting [15], 67.6%; under setting [16], 74.3%; under setting [17], 62.6%; (second compound 0.1 µM, first compound 3.16 µM) 14.1%; (second compound 0.1 µM, first compound 10 µM) 0.13%. Moreover, the viability, T/C was 75.3% under setting [18]; 74.7% under setting [19]; 66% under setting [20]; 58.1% under setting [21]; 11.2% (second compound 0.316 µM, first compound 3.16 µM); 0.14% (second compound 0.316 µM, first compound 10 µM). For the same compound, the viability, T/C under setting [22] is 86%; the viability, T/C under setting [23] is 78.8%; the viability, T/C under setting [24] was 66.3%; the viability, T/C under setting [25] was 55.5%; the viability, T/C (second compound 1 µM, first compound 3.16 µM) is 15%; the viability, T/C (second compound 1 µM, first compound 10 µM) was 0.21%.
Consider `CCN1CCN(Cc2ccc(Nc3ncc(F)c(-c4cc(F)c5nc(C)n(C(C)C)c5c4)n3)nc2)CC1` + CNC(C)C(=O)NC1CN(S(=O)(=O)c2cccc(S(=O)(=O)N3CCC4CCC(C(=O)NC(c5ccccc5)c5ccccc5)N4C(=O)C(NC(=O)C(C)NC)C3)c2)CCC2CCC(C(=O)NC(c3ccccc3)c3ccccc3)N2C1=O, for which the negative-log IC50 (pIC50) is below 6.00 under setting [1]; below 6.00 under setting [2]; below 6.00 under setting [3]; below 6.00 under setting [4]; below 6.00 under setting [5]. The viability, T/C was 102% (second compound 0.01 µM, first compound 0.00316 µM); 110% (second compound 0.01 µM, first compound 0.01 µM); 97.7% under setting [6]; 88.9% under setting [7]; 68.7% under setting [8]; 73.8% under setting [9]. Also, the viability, T/C (second compound 0.0316 µM, first compound 0.00316 µM) is 106%; the viability, T/C (second compound 0.0316 µM, first compound 0.01 µM) is 104%; the viability, T/C under setting [10] is 90.5%; the viability, T/C under setting [11] was 82.4%; the viability, T/C under setting [12] is 61.2%; the viability, T/C under setting [13] is 65%. The viability, T/C is 99.4% (second compound 0.1 µM, first compound 0.00316 µM); 104% (second compound 0.1 µM, first compound 0.01 µM); 94% under setting [14]; 76.7% under setting [15]; 68% under setting [16]; 68.2% under setting [17]. In addition, the viability, T/C reads like this: (second compound 0.316 µM, first compound 0.00316 µM) 110%; (second compound 0.316 µM, first compound 0.01 µM) 100%; under setting [18], 95.5%; under setting [19], 75.9%; under setting [20], 65.8%; under setting [21], 64.4%. The viability, T/C is 106% (second compound 1 µM, first compound 0.00316 µM); 115% (second compound 1 µM, first compound 0.01 µM); 91.6% under setting [22]; 82.1% under setting [23]; 73% under setting [24]; 54.7% under setting [25].
In the case of `C=CC(=O)N1CCN(c2nc(=O)n(-c3c(C)ccnc3C(C)C)c3nc(-c4c(O)cccc4F)c(F)cc23)C(C)C1` (centres undefined), the viability, T/C (compound 0.0316 µM) is 79% and 84.1% and 96.8%; the viability, T/C (compound 0.1 µM) is 81.7% and 85.2% and 87.5%; the viability, T/C (compound 0.316 µM) is 63.5% and 71.4% and 76%; the viability, T/C (compound 1 µM) is 71.2% and 69.4% and 84.9%; the viability, T/C (compound 3.16 µM) was 66.3% and 67.2% and 77.7%; the viability, T/C (compound 10 µM) was 60.9% and 59.4% and 66%. Moreover, where the note is “curve of compound”, the pIC50 is below 5.00.
`C#Cc1c(F)ccc2cc(O)cc(-c3ncc4c(N5CC6CCC(C5)N6)nc(OCC56CCCN5CC(F)C6)nc4c3F)c12` (centres undefined): the viability, T/C runs as follows: (compound 0.0316 µM) 108% and 96.6% and 89.6%; (compound 0.1 µM) 101% and 100% and 94%; (compound 0.316 µM) 101% and 82.7% and 90.7%; (compound 1 µM) 82.9% and 72.4% and 78.3%; (compound 3.16 µM) 69.9% and 64.9% and 68.1%; (compound 10 µM) 58% and 47.4% and 53.3%. In addition, where the note is “curve of compound”, the pIC50 was < 5.00 and 5.06.

Usually pIC50 stands for the IC50 on a negative log10 scale, so that one unit is a factor of ten. As usually defined, the viability, T/C is the ratio of treated to control.

For the origin of these results see PubChem BioAssay AID1963424 (Molecular Pharmacology Branch, DTP, NCI, 2024).
